Experiment [1] concerns Glomerella lagenarium (Colletotrichum lagenarium). Put plainly: Fungicidal activity against Glomerella lagenarium (Colletotrichum lagenarium) liquid culture / cucumber / preventative (anthracnose). The settings on record: Colletotrichum orbiculare; 20 ppm in the applied formulation; liquid culture (PDB), growth inhibition measured photometrically after 3 to 4 days; compared to untreated control; read-out: disease control. The format is cell-based. The method in brief: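 Photometric read-out of fungal growth after 2–7 days, expressed as percent antifungal activity versus untreated check. Cryo-stored conidia in PDB; compound at 20 ppm; dark, 24 °C, 96% RH.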

Experiment [2] deals with Puccinia recondita f. Sp. Tritici. Put plainly: Fungicidal activity against Puccinia recondita f. sp. tritici / wheat / leaf disc curative (brown rust). It is filed as in vivo. The settings on record: foliar, 24 h, 200 ppm in the applied formulation, wheat leaf segments, curative (applied 1 day after inoculation), compared to untreated control leaf disks, read-out: disease control. The method, then: Leaf disks or leaf segments of various plant species are cut from plants grown in a greenhouse. The cut leaf disks or segments are placed in multiwell plates (24-well format) onto water agar. The leaf disks are sprayed with a test solution before (preventative) or after (curative) inoculation. Compounds to be tested are prepared as DMSO solutions (max. 10 mg/ml) which are diluted to the appropriate concentration with 0.025% Tween20 just before spraying. The inoculated leaf disks or segments are incubated under defined conditions (temperature, relative humidity, light, etc.) according to the respective test system. A single evaluation of disease level is carried out 3 to 14 days after inoculation, depending on the pathosystem. Percent disease control relative to the untreated check leaf disks or segments is then calculated.
Fungicidal Activity Against Puccinia recondita f. Sp. Tritici/Wheat/Leaf Disc Curative (Brown Rust)
Wheat leaf segments cv. Kanzler are placed on agar in multiwell plates (24-well format). The leaf segments are then inoculated with a spore suspension of the fungus. Plates were stored in darkness at 19° C. and 75% relative humidity. The formulated test compound diluted in water was applied 1 day after inoculation. The leaf segments were incubated at 19° C. and 75% relative humidity under a light regime of 12 hours light/12 hours darkness in a climate cabinet and the activity of a compound was assessed as percent disease control compared to untreated when an appropriate level of disease damage appears in untreated check leaf segments (6 to 8 days after application).
The following compounds at 200 ppm in the applied formulation give at least 80% disease control in this test when compared to untreated control leaf disks under the same conditions, which show extensive disease development.

Experiment [3] has the same test system. Put plainly: Fungicidal activity against Puccinia recondita f. sp. tritici / wheat / leaf disc preventative (brown rust). It is filed as in vivo. The note with it: foliar, 200 ppm in the applied formulation, wheat leaf segments, preventative, compared to untreated control leaf disks, read-out: disease control. The method in brief: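 Preventative leaf-segment test, wheat cv. Kanzler on water agar. Spray compound at 200 ppm, inoculate with spores 1 day later; 19° C., 75% rh, 12/12 h light. Read-out: % disease control vs untreated, 7 to 9 days after application.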

Regarding `C=CCN(Cc1ccc(-c2noc(C(F)(F)F)n2)cc1)C(=O)CNC(C)=O` [Compound 1.481, 2-acetamido-N-allyl-N-[[4-[5-(trifluoromethyl)-1,2,4-oxadiazol-3-yl]phenyl]methyl]-acetamide], the inhibition of growth at 20 ppm in experiment [1] was ≥ 80%. The pest or weed control at 200 ppm in experiment [2] and in experiment [3] was ≥ 80% in each case.

On to `C=CCN(C)C(=O)N(C)Cc1ccc(-c2noc(C(F)(F)F)n2)cc1` [Compound 3.78, 1-allyl-1,3-dimethyl-3-[[4-[5-(trifluoromethyl)-1,2,4-oxadiazol-3-yl]phenyl]methyl]urea], for which the inhibition of growth at 20 ppm in experiment [1] was ≥ 80%. The pest or weed control at 200 ppm in experiment [2] and in experiment [3] was ≥ 80% throughout.

Regarding `O=C(C1CC1)N(Cc1ccc(-c2noc(C(F)(F)F)n2)cc1)CC1CCCO1` (centres unmarked) [Compound 1.450, N-(tetrahydrofuran-2-ylmethyl)-N-[[4-[5-(trifluoromethyl)-1,2,4-oxadiazol-3-yl]phenyl]methyl]-cyclopropane-carboxamide], the inhibition of growth at 20 ppm in experiment [1] is ≥ 80%. Besides, the pest or weed control at 200 ppm in experiment [2] and in experiment [3] was ≥ 80% in each case.

As for `CCN(Cc1ccc(-c2noc(C(F)(F)F)n2)cc1)C(=O)N(C)C1(COC)CC1` [Compound 3.95, 1-ethyl-3-[1-(methoxymethyl)-cyclopropyl]-3-methyl-1-[[4-[5-(trifluoromethyl)-1,2,4-oxadiazol-3-yl]phenyl]methyl]urea], the inhibition of growth at 20 ppm in experiment [1] was ≥ 80%. Further, the pest or weed control at 200 ppm in experiment [2] and in experiment [3] was ≥ 80% each time.

Regarding `CON(Cc1ccc(-c2noc(C(F)(F)F)n2)cc1)C(=O)OC(C)C` [Compound 2.14, isopropyl N-methoxy-N-[[4-[5-(trifluoromethyl)-1,2,4-oxadiazol-3-yl]phenyl]methyl]-carbamate], the inhibition of growth at 20 ppm in experiment [1] is ≥ 80%. For the same compound, the pest or weed control at 200 ppm in experiment [2] and in experiment [3] was ≥ 80% each time.

`CCCN(C)C(=O)N(CC)Cc1ccc(-c2noc(C(F)(F)F)n2)cc1` [Compound 3.94, 1-ethyl-3-methyl-3-propyl-1-[[4-[5-(trifluoromethyl)-1,2,4-oxadiazol-3-yl]phenyl]methyl]urea]: the inhibition of growth at 20 ppm in experiment [1] is ≥ 80%. Also, the pest or weed control at 200 ppm in experiment [2] and in experiment [3] was ≥ 80% in each case.

As for `C=CCN(C)C(=O)N(CC)Cc1ccc(-c2noc(C(F)(F)F)n2)cc1` [Compound 3.97, 1-allyl-3-ethyl-1-methyl-3-[[4-[5-(trifluoromethyl)-1,2,4-oxadiazol-3-yl]phenyl]methyl]urea], the inhibition of growth at 20 ppm in experiment [1] was ≥ 80%. For the same compound, the pest or weed control at 200 ppm in experiment [2] and in experiment [3] was ≥ 80% throughout.

With `CCC(C)N(Cc1ccc(-c2noc(C(F)(F)F)n2)cc1)C(=O)C=CC(C)=O` (centres unmarked) [Compound 1.396, 4-oxo-N-sec-butyl-N-[[4-[5-(trifluoromethyl)-1,2,4-oxadiazol-3-yl]phenyl]methyl]-pent-2-enamide], the inhibition of growth at 20 ppm in experiment [1] was ≥ 80%. The pest or weed control at 200 ppm in experiment [2] and in experiment [3] was ≥ 80% each time.

Regarding `COC(C)C(=O)N(Cc1ccc(-c2noc(C(F)(F)F)n2)cc1)CC1CCCO1` (centres unmarked) [Compound 1.446, 2-methoxy-N-(tetrahydrofuran-2-ylmethyl)-N-[[4-[5-(trifluoromethyl)-1,2,4-oxadiazol-3-yl]phenyl]methyl]-propanamide], the inhibition of growth at 20 ppm in experiment [1] was ≥ 80%. For the same compound, the pest or weed control at 200 ppm in experiment [2] and in experiment [3] was ≥ 80% throughout.

Regarding `COCC(=O)N(Cc1ccc(-c2noc(C(F)(F)F)n2)cc1)Cc1ccco1` [Compound 1.459, N-(2-furylmethyl)-2-methoxy-N-[[4-[5-(trifluoromethyl)-1,2,4-oxadiazol-3-yl]phenyl]methyl]-acetamide], the inhibition of growth at 20 ppm in experiment [1] is ≥ 80%. Besides, the pest or weed control at 200 ppm in experiment [2] and in experiment [3] was ≥ 80% in each case.

Turning to `CCCON(Cc1ccc(-c2noc(C(F)(F)F)n2)cc1)C(=O)C(C)CC` (centres unmarked) [Compound 1.308, 2-methyl-N-propoxy-N-[[4-[5-(trifiuoromethyl)-1,2,4-oxadiazol-3-yl]phenyl]methyl]-butanamide], in experiment [1], the inhibition of growth at 20 ppm is ≥ 80%. Moreover, the pest or weed control at 200 ppm in experiment [2] and in experiment [3] was ≥ 80% throughout.

As to `CN(Cc1ccc(-c2noc(C(F)(F)F)n2)cc1)C(=O)N(C)C1CC1` [Compound 3.72, 1-cyclopropyl-1,3-dimethyl-3-[[4-[5-(trifluoromethyl)-1,2,4-oxadiazol-3-yl]phenyl]methyl]urea], the inhibition of growth at 20 ppm in experiment [1] was ≥ 80%. The pest or weed control at 200 ppm in experiment [2] and in experiment [3] was ≥ 80% throughout.

Regarding `O=C(C1CCC1)N(Cc1ccc(-c2noc(C(F)(F)F)n2)cc1)Cc1ccco1` [Compound 1.458, N-(2-furylmethyl)-N-[[4-[5-(trifluoromethyl)-1,2,4-oxadiazol-3-yl]phenyl]methyl]-cyclobutane-carboxamide], the inhibition of growth at 20 ppm in experiment [1] was ≥ 80%. Moreover, the pest or weed control at 200 ppm in experiment [2] and in experiment [3] was ≥ 80% each time.

For `CC=C(C)C(=O)N(Cc1ccc(-c2noc(C(F)(F)F)n2)cc1)CC1CCCO1` (centres unmarked) [Compound 1.417, 2-methyl-N-(tetrahydrofuran-2-ylmethyl)-N-[[4-[5-(trifluoromethyl)-1,2,4-oxadiazol-3-yl]phenyl]methyl]but-2-enamide], the inhibition of growth at 20 ppm in experiment [1] was ≥ 80%. In addition, the pest or weed control at 200 ppm in experiment [2] and in experiment [3] was ≥ 80% in each case.

`COCCN(Cc1ccc(-c2noc(C(F)(F)F)n2)cc1)C(=O)COC(C)=O` [Compound 1.348, [2-[2-methoxyethyl-[[4-[5-(trifluoromethyl)-1,2,4-oxadiazol-3-yl]phenyl]methyl]-amino]-2-oxo-ethyl] acetate]: the inhibition of growth at 20 ppm in experiment [1] was ≥ 80%. Besides, the pest or weed control at 200 ppm in experiment [2] and in experiment [3] was ≥ 80% throughout.

Regarding `CON(Cc1ccc(-c2noc(C(F)(F)F)n2)nc1)C(=O)C1CCCO1` (centres unmarked) [Compound 1.789, N-methoxy-N-[[6-[5-(trifluoromethyl)-1,2,4-oxadiazol-3-yl]-3-pyridyl]methyl]-tetrahydrofuran-2-carboxamide], the pest or weed control at 200 ppm in experiment [2] and in experiment [3] was ≥ 80% throughout.

For the compound `CCN(Cc1ccc(-c2noc(C(F)(F)F)n2)cc1)C(=O)N(C)CC(=O)NC` [Compound 3.86, 2-[[ethyl-[[4-[5-(trifluoromethyl)-1,2,4-oxadiazol-3-yl]phenyl]methyl]-carbamoyl]-methyl-amino]-N-methyl-acetamide], the pest or weed control at 200 ppm in experiment [2] and in experiment [3] was ≥ 80% throughout.

For `CON(Cc1ccc(-c2noc(C(F)(F)F)n2)cc1)C(=O)Cc1ccc(C#N)cc1` [Compound 1.52, 2-(4-cyanophenyl)-N-methoxy-N-[[4-[5-(trifluoromethyl)-1,2,4-oxadiazol-3-yl]phenyl]methyl]-acetamide], the pest or weed control at 200 ppm in experiment [2] and in experiment [3] was ≥ 80% throughout.

Consider `CNC(=O)CN(C)C(=O)N(C)Cc1ccc(-c2noc(C(F)(F)F)n2)cc1` [Compound 3.68, N-methyl-2-[methyl-[methyl-[[4-[5-(trifluoromethyl)-1,2,4-oxadiazol-3-yl]phenyl]methyl]-carbamoyl]-amino]acetamide], for which the pest or weed control at 200 ppm in experiment [2] and in experiment [3] was ≥ 80% in each case.

On to `CON(Cc1ccc(-c2noc(C(F)(F)F)n2)cc1)C(=O)CN` [Compound 1.788, [2-[methoxy-[[4-[5-(trifluoromethyl)-1,2,4-oxadiazol-3-yl]phenyl]methyl]-amino]-2-oxo-ethyl]ammonium; chloride], for which the pest or weed control at 200 ppm in experiment [2] and in experiment [3] was ≥ 80% throughout.

In the case of `CCC(COC)C(=O)N(CCOC)Cc1ccc(-c2noc(C(F)(F)F)n2)cc1` (centres unmarked) [Compound 1.353, N-(2-methoxyethyl)-2-(methoxymethyl)-N-[[4-[5-(trifluoromethyl)-1,2,4-oxadiazol-3-yl]phenyl]methyl]-butanamide], the pest or weed control at 200 ppm in experiment [2] and in experiment [3] was ≥ 80% throughout.

For `C#CCN(Cc1ccc(-c2noc(C(F)(F)F)n2)cc1)C(=O)C1CCSCC1` [Compound 1.188, N-prop-2-ynyl-N-[[4-[5-(trifluoromethyl)-1,2,4-oxadiazol-3-yl]phenyl]methyl]-tetrahydrothiopyran-4-carboxamide], the pest or weed control at 200 ppm in experiment [2] and in experiment [3] was ≥ 80% throughout.
